# From US20230137092A1, “Composition and Method for the Treatment and Prevention of Cardiac, Pulmonary, Dermal, and Renal Fibrosis” (EMERALD HEALTH PHARMACEUTICALS INC., priority 2020, published 2023)
# Key:
# [1] = tested on: Ang II-induced aortic fibrosis; experiment: Ang II preventive model: aorta sections, picrosirius red; format: in vivo, mouse; conditions: Ang II two weeks, oral treatment
# Procedure: Ang II causes myocardial fibrosis in a short period of time (Sopel M et al., 2011, Lab. Invest., 91:565-578) characterized by collagen accumulation and after 14 days of Ang II infusion (Sigusch H H et al., 1996, Cardiovascular Research, 31:546-554). […] Subcutaneous infusion of Ang II using ALZET® osmotic pumps was used to study compound preventive effects. ALZET® osmotic minipumps (Model #2004, Charles Rives, Barcelona, Spain) delivering of Ang II (1.0 mg kg^− min^−) (Sigma-Aldrich, Madrid, Spain) for two weeks. Compound treatment was daily administered in parallel, one day before of the implantation of the subcutaneous pump, beneath the mid scapular loose skin and consisted of daily oral gavage of compound (20 mg/kg) or vehicle (Corn Oil/Maisine CC, 1/1). Mice were acclimated to manipulators for a week previously to the experiments in order to reduce stress and allow the detection of subtle changes in behavior by researchers. […] Neither piloerection nor hunched appearances were appreciated during the experimental procedures. […]
# Mice treated with Ang II presented an increase in the thickness of aortic media layer by collagen accumulation. […] Three-four random fields of each heart were photographed by standard brightfield microscopy and digitalized using a Leica DFC420c camera and analyzed using Fiji software (rsb.info.nih.gov/ij/).
# [2] = tested on: human immortalized cardiac fibroblasts (hICF); experiment: Fibroblast differentiation into myofibroblasts: α-SMA expression in hICF; format: cell-based; conditions: hICF treated with TGF-β or Ang II; pretreatment with compound
# Source text: The profibrotic activity of Ang II on cardiac fibroblasts in vitro and in vivo has been extensively documented (H. H. Sigusch et al., 1996, Cardiovasc Res, 31:546-554). To study myofibroblast differentiation in vitro, immortalized cardiac fibroblasts (hICF) were stained with for α-SMA expression, a specific marker for myofibroblasts differentiation. Immortalized primary human cardiac fibroblasts (hICF) with SV40 Large T antigen were obtained from Innoprot SL (Derio, Spain) and cultured in low passages (<5 passages). The cells were maintained in a humidified atmosphere at 37° C. containing 5% CO2, 10% fetal bovine serum (FBS) and 1% (v/v) penicillin/streptomycin in Fibroblast Medium-2 (P60108-2, Innoprot, Derio, Spain). Ang II was purchased from Sigma-Aldrich Co (A9525, Sigma, Madrid, Spain) and TGFb1 (Transforming Growth Factor-b)-1 (10 ng/mL) was obtained from ImmunoTools GmbH (Friesoythe, Germany). Both TGF-β and Ang II induced α-SMA protein expression in cultured hICF and pretreatment with compound of Formula (VIII) decreased α-SMA expression. The differentiation to myofibroblast was associated with morphological changes of cellular hypertrophy.
# E2F pathway = experiment: RNA-Seq of myocardial tissue with GSEA of MSigDb hallmarks, Ang II preventive model; format: in vivo, mouse; conditions: cardiac RNA; Ang II-challenged mice; n=3 each group
# Procedure: RNA seq analysis from RNA extracted of myocardial tissue was performed. Transcriptome libraries were constructed with TruSeq Illumina TruSeq mRNA Sample Prep v2 kit (#RS-122-2001). In brief, 300 ng of RNA from each sample was used to construct a cDNA library, followed by sequencing on the Illumina Hiseq 2500 with single end 50 bp reads and ˜30 million reads per sample.
# RNA-Seq reads were pre-processed with fastp (v0.20.0) and aligned to mouse genome assembly grcm38 using HISAT2 (v2.1.0). Then, counts per gene were obtained with featureCounts (v1.6.1) and normalization and differential expression analyses were carried out using edgeR (v3.26.8), excluding those genes with less than 15 counts across all samples. Finally, the functional analysis was performed using the functional categories defined by MSigDb hallmarks for Mus musculus (V7.0) and the clusterProfiler package (v3.12.0).
# The results confirmed the hallmarks that were enriched in the Ang II group versus control group were pathways related to fibrotic response; this was the case of IFN-α and IFN-γ response, TNF-α signaling via NF-KB, Epithelial Mesenchymal Transition and inflammatory responses, including IL6 JAK STAT Signaling (FIG. 6). The results were obtained after carrying out the functional analysis of the transcriptomic signatures in heart tissue. […]
# ERK1+2 = experiment: Ang II-induced ERK1+2 phosphorylation in hICF, immunoblot; format: cell-based, human; conditions: hICF preincubated with compound, Ang II for 30 minutes
# Procedure: The effect of compound of Formula (VIII) on Ang II signaling pathways in hICF was investigated. ERK1+2 and NFAT activation are two pathways activated by Ang-II (Wakatsuki et al., 2004, Trends Biochem Sci, 29:609-617). hICF were preincubated with compound of Formula (VIII), treated with Ang II for 30 minutes, washed with PBS and proteins extracted in 50 μL of lysis buffer (50 mM Tris-HCl pH 7.5, 150 mM NaCl, 1% (v/v) NP-40, 10% (v/v) glycerol, 10 mM NaF, 1 mM Na3VO4, aprotinin (10 μg/ml), leupeptine (10 μg/ml), pepstatin (1 μg/ml) and 1 mM PMSF saturated). Separated proteins in 10% SDS/PAGE gels were transferred to PVDF membranes and blocked in TBS solution containing 0.1% Tween 20 and 5% bovine serum albumin (BSA) for 1 hour at room temperature. Immunodetection of specific proteins was carried out by incubation with primary antibodies against p-ERK (1:1000; #4695 Cell Signaling Technology) and ERK (1:1000, M5670, Sigma). Membranes were incubated with horseradish peroxidase-conjugated secondary antibody was added and proteins detected by chemiluminescence system (GE Healthcare Europe GmbH). Compound of Formula (VIII) inhibited Ang II-induced ERK1+2 phosphorylation (FIG. 16B).
smiles,measurement,setting,value
C=C(C)C1CCC(C)=C[C@H]1C1=C(O)C(=O)C(CCCCC)=C(NCc2ccccc2)C1=O (stereo partly shown) [Formula (VIII)],thickness of aortic media layer by collagen accumulation,[1],significantly alleviated
same,α-SMA expression,[2],decreased
same,expression of a set of genes of E2F pathway (RNA-Seq),E2F pathway,clearly downregulated
same,Ang II-induced ERK1+2 phosphorylation,ERK1+2,inhibited
